Where two headings read alike, the source gives them in different places.
Tests used:
NhAAT [1] = test system: T1, NhAAT; test: coupled malate dehydrogenase assay, NADH decrease at […] nm, double reciprocal plot; type: biochemical, Neoporphyra haitanensis; details: reverse reaction; co-substrate 20 mM α-ketoglutarate; 50 µM PLP; 0.1 M sodium phosphate; optimal conditions pH 7.5, 45 °C; L-aspartic acid 0-100 mM
T1 construct: gene AAT; E. coli BL21 pLysS; homodimer predicted; catalytic Lys267; primers imply N-terminus MTTTAMAP and C-terminus ETVVKQE

NhAAT [2] = test system: T2, NhAAT; details: forward reaction; co-substrate 20 mM oxaloacetic acid; 50 µM PLP; 0.1 M sodium phosphate; optimal conditions pH 7.5, 45 °C; L-glutamic acid 0-100 mM
T2 construct: gene AAT

Km (NhAAT [1]) [mM] | Km (NhAAT [2]) [mM] | Structure (SMILES)
6.16 |  | N[C@@H](CC(=O)O)C(=O)O [L-aspartic acid]
 | 5.67 | N[C@@H](CCC(=O)O)C(=O)O [L-glutamic acid]

From PMC10029208, “Isolation and functional verification of an aspartate aminotransferase gene from Neoporphyra haitanensis” (BMC Plant Biology, 2023)
